From the supplement of paper PMC10949913

What was measured:
Experiment in all cases: area under concentration-response curve (viability) (AUC (a.u.)); higher = less active
Conditions in all cases: 48 h
[1] = tested on: NCI-H295R
Method in brief: (§1)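 Three adrenocortical carcinoma cell lines were seeded at 500–1,000 cells/well in 5 µL medium in 1,536-well plates. 23 nL of each MIPE 5.0 library compound was added at 11 concentrations. After 48 h (per the protocol name), CellTiter-Glo was added for 15 minutes at room temperature and luminescence was read. Signals were normalised per plate to vehicle and empty-well controls. AC50 and area under the curve came from fitted concentration-response curves, keeping only inhibitory or non-responding curve classes.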

[2] = tested on: CU-ACC2
Method in brief: as §1

[3] = tested on: CU-ACC1
Method in brief: as §1

Row | SMILES | area under concentration-response curve [1] | area under concentration-response curve [2] | area under concentration-response curve [3]
1 | C=CC(=O)N[C@H]1CCOC[C@H]1Nc1ncc2cc(-c3c(Cl)c(OC)cc(OC)c3Cl)ccc2n1 | 453 | 554 | 458
2 | C[C@H]1C[C@@H]2[C@H](CC[C@@]3(C)[C@H]2CC[C@]3(OC(C)=O)C(C)=O)[C@@]\4(C)CCC(=O)\C=C14 | 557 | 618 | 554
3 | N[S+](=O)([O-])c1cc(Cl)c(Cl)c([S+](N)(=O)[O-])c1 | 524 | 528 | 459
4 | COc1ccc2cc(OCC3(C(=O)O)CN(C(=O)c4ccc(F)cc4)C3)ccc2c1 | 552 | 606 | 556
5 | CC1SC/2=C(C(O)=O)/C(=O)C3=CC(=C(C=C3N12)N4CCN(CC4)C\C5=C(C)\OC(=O)O5)F (centres undefined) | 565 | 612 | 586
6 | CCCC[C@@H](C=O)NC(=O)[C@H](CC(C)C)NC(=O)OCc1ccccc1 | 517 | 552 | 463
7 | Nc1nc(OCc2ccccc2)c2nc[nH]c2n1 | 441 | 479 | 432
8 | COC1=CC(=C2C(=O)N\C(=N/C2=C1)C3=CC(=C(OCCO)C(=C3)C)C)OC | 541 | 532 | 532
9 | CO[C@H](C1COC1)C2=C(Cl)C3=C(CCN(C\C4=C(OC)\C=C(\C)NC4=O)C3=O)C(=C2)Cl | 536 | 579 | 496
10 | Cc1cc(SCc2sc(-c3ccc(C(F)(F)F)c(F)c3)nc2C)ccc1OCC(=O)O | 565 | 493 | 539
11 | O=C1\C=C/C=C2/[C@H]3CNC[C@H](C3)CN12 | 576 | 663 | 593
12 | CC1COC2(CCN(CC2)C/3=N/C(=O)C4=CC(=CC(=C4S3)[N+]([O-])=O)C(F)(F)F)O1 (centres undefined) | 462 | 472 | 416
13 | CCOP(=O)(OCC)C(C)NC(=O)N(CCCl)N=O (centres undefined) | 510 | 540 | 488
14 | CCNC(=O)Nc1ccc(Oc2ncnc(N)c2/C=N/OC)cc1Cl | 567 | 645 | 509
15 | CO[C@H]1/C=C/O[C@@]2(C)Oc3c(C)c(O)c4c(O)c(c5c(nc6cc(C)ccn65)c4c3C2=O)NC(=O)/C(C)=C\C=C\[C@H](C)[C@H](O)[C@@H](C)[C@@H](O)[C@@H](C)[C@H](OC(C)=O)[C@@H]1C | 529 | 557 | 475
16 | C=CC(=O)Nc1cc(N2CCN(CC)CC2)ccc1Nc1cc(N(C)C(=O)Nc2c(Cl)c(OC)cc(OC)c2Cl)ncn1 | 495 | 566 | 537
17 | Nc1cccc2c1C(=O)N(C1CCC(=O)NC1=O)C2=O (centres undefined) | 567 | 645 | 520

Row | SMILES | area under concentration-response curve [1] | area under concentration-response curve [2] | area under concentration-response curve [3]
18 | CC(C)(C)C#Cc1cc(N(C(=O)[C@H]2CC[C@H](C)CC2)[C@H]2CC[C@@H](O)CC2)c(C(=O)O)s1 | 497 | 478 | 497
19 | CC(C)N1C(=O)NC(=C/C1=O)\N[C@@H](C)C2=CC=CC=C2 | 497 | 552 | 471
20 | CN1CCN(c2ccc(OC(F)(F)F)c(Nc3ncc4c(n3)-c3c(c(C(N)=O)nn3CCO)CC4)c2)CC1 | 460 | 587 | 498
21 | Cc1[nH]c(/C=C2\C(=O)Nc3ccc(F)cc32)c(C)c1C(=O)NC[C@H](O)CN1CCOCC1 | 539 | 601 | 525
22 | CC(C)OC(=O)C(C)(C)Oc1ccc(C(=O)c2ccc(Cl)cc2)cc1 | 517 | 608 | 593
23 | O=C(Oc1ccc([N+](=O)[O-])cc1)N1CCC(C(O)(c2ccc3c(c2)OCO3)c2ccc3c(c2)OCO3)CC1 | 535 | 575 | 495
24 | O=C(O)C(=O)c1cn(Cc2ccccc2)c2ccc(-c3ccc(OC(F)(F)F)cc3)cc12 | 489 | 489 | 474
25 | CC[C@H](/C=C/[C@@H](C)[C@H]1CC[C@H]2[C@@H]3CC=C4C[C@@H](O)CC[C@]4(C)[C@H]3CC[C@]12C)C(C)C | 602 | 612 | 550
26 | O=C1NC(=O)/C(=C/c2ccc(-c3ccc(F)cc3O)o2)S1 | 575 | 611 | 580
27 | O=C(NCc1ccncc1)C12C[C@H]3C[C@@H](C1)CC(c1ccc(Cl)cc1)(C3)C2 | 468 | 576 | 486
28 | OC[C@H]1O[C@H]([C@H](O)[C@@H]1O)N2\C=C/C(=O)NC2=O | 502 | 535 | 485
29 | COc1ccc2c(C(=S)N(C)CC(=O)O)cccc2c1C(F)(F)F | 481 | 535 | 490
30 | COC1=CC=C2[C@H]3CC[C@]4(C)[C@H](CC[C@H]4[C@@H]3CCC2=C1)NCCCCCCN5C(=O)\C=C/C5=O | 517 | 460 | 496
31 | C[C@H]1O[C@H](O[C@H]2[C@H](O)[C@@H](O)[C@@H](O[C@H]3[C@H](O)[C@@H](O)C(O)O[C@@H]3CO)O[C@@H]2CO)[C@H](O)[C@@H](O)[C@@H]1N[C@H]1C=C(CO)[C@@H](O)[C@H](O)[C@H]1O (some centres undefined) | 447 | 482 | 414
32 | CCCCN(CCCC)CC(O)c1cc(Cl)cc2c1-c1ccc(Cl)cc1/C2=C/c1ccc(Cl)cc1 (centres undefined) | 582 | 631 | 546
33 | CCOC(=O)c1c(/C(C#N)=C\N)c2ccc(Cl)c(Cl)c2n1C | 517 | 478 | 510
